Data reported in patent US20230140290A1, “SALICYLAMIDE DERIVATIVES AND RELATED METHODS OF MAKING” (THE BOARD OF REGENTS OF THE UNIVERSITY OF TEXAS SY, priority 2020, published 2023).
Where a name gives a salt, the structure may show the parent alone.

Assays:
HAdV5-GFP = assay: Plaque assay (inhibition of HAdV plaque formation); format: cell-based, HAdV-5; settings: for Selectivity index (SI): ratio of CC50 to IC50 in plaque assay; for inhibition at 10 µM: read-out: Plaque Assay (%) Inhibition (10 μM); for IC50: read-out: Plaque Assay IC50 (μM), HAdV5-GFP, low MOI, 293β5 cell line; for EC50: read-out: EC50 (plaque assay)
Experimental: Plaque Assay. […] When cells reached 80-90% confluency, they were infected with HAdV5-GFP (0.06 vp/cell) and rocked for 2 h at 37° C. After the incubation the inoculum was removed, and the cells were washed once with PBS.
Plaque Assay. Compounds were tested using low MOI infections (0.06 vp/cell) and at concentrations of 10 μM and in a dose-response assay ranging from 10 to 0.3 μM in a plaque assay. […] When cells reached 80-90% confluency, they were infected with HAdV5-GFP (0.06 vp/cell) and rocked for 2 h at 37° C. After the incubation the inoculum was removed, and the cells were washed once with PBS. […] The mixture also contained the compounds in concentrations ranging from 10 to 0.3 μM.

A549 cells = assay: Cytotoxicity assay (AlamarBlue); settings: read-out: CC50 (μM), cytotoxic concentration 50%; A549 cell line, 48 h
Experimental: Cytotoxicity Assay. The cytotoxicity of the compounds was analyzed by commercial kit AlamarBlue® (Invitrogen, Ref. DAL1025). A549 cells at a density of 5×10^3 cells per well in 96-well plates were seeded. […] Cells were then incubated at 37° C. for 48 h following the kit protocol. The cytotoxic concentration 50 (CC50) value was obtained using the statistical package GraphPad Prism. This assay was performed in duplicate.

Compound: O=C(N[C@@H](Cc1ccccc1)C(=O)Nc1cc(C(F)(F)F)cc(C(F)(F)F)c1)c1cc(Cl)ccc1O [Compound 69, (S)—N-(1-((3,5-Bis(trifluoromethyl)phenyl)amino)-1-oxo-3-phenylpropan-2-yl)-5-chloro-2-hydroxybenzamide]
- Selectivity index (SI) (HAdV5-GFP): 44.9
- inhibition at 10 µM (HAdV5-GFP): 99 ± 1.4%
- IC50 (HAdV5-GFP): 0.4 µM
- CC50 (A549 cells): 17.9 µM

Compound: O=C(Cc1cc(Cl)ccc1O)Nc1ccc([N+](=O)[O-])cc1Cl [Compound 54, 2-(5-Chloro-2-hydroxyphenyl)-N-(2-chloro-4-nitrophenyl)acetamide]
- inhibition at 10 µM (HAdV5-GFP): 0%

Compound: Cc1ccc(CNC(=O)c2cc(Cl)ccc2O)cc1 [Compound 44, 5-Chloro-2-hydroxy-N-(4-methylbenzyl)benzamide]
- Selectivity index (SI) (HAdV5-GFP): 10.8
- inhibition at 10 µM (HAdV5-GFP): 96.6 ± 4%
- IC50 (HAdV5-GFP): 8.12 ± 2.16 µM
- CC50 (A549 cells): 87.7 ± 4.7 µM

Compound: C[C@H](NC(=O)c1cc(Cl)ccc1O)C(=O)Nc1ccc([N+](=O)[O-])cc1Cl [Compound 57, (S)-5-Chloro-N-(1-((2-chloro-4-nitrophenyl)amino)-1-oxopropan-2-yl)-2-hydroxybenzamide]
- Selectivity index (SI) (HAdV5-GFP): 26.0
- inhibition at 10 µM (HAdV5-GFP): 97.4 ± 2.7%
- IC50 (HAdV5-GFP): 3.85 µM
- CC50 (A549 cells): 100 µM

Compound: C[C@H](NC(=O)c1cc(Cl)ccc1O)c1ccccc1 [Compound 47, (S)-5-Chloro-2-hydroxy-N-(1-phenylethyl)benzamide]
- Selectivity index (SI) (HAdV5-GFP): 78.5
- inhibition at 10 µM (HAdV5-GFP): 100%
- IC50 (HAdV5-GFP): 2.54 µM
- CC50 (A549 cells): 199 µM

Compound: O=C(Nc1ccc(NCC2CCNCC2)cc1Cl)c1cc(Cl)ccc1O [Compound 127, 5-Chloro-N-(2-chloro-4-((piperidin-4-ylmethyl)amino)phenyl)-2-hydroxybenzamide]
- inhibition at 10 µM (HAdV5-GFP): 20.6 ± 10.3%

Compound: O=C(Nc1ccc(NCc2cccc(C(F)(F)F)c2)cc1Cl)c1cc(Cl)ccc1O [Compound 99, 5-Chloro-N-(2-chloro-4-((3-(trifluoromethyl)benzyl)amino)phenyl)-2-hydroxybenzamide]
- Selectivity index (SI) (HAdV5-GFP): 15.2
- inhibition at 10 µM (HAdV5-GFP): 100%
- IC50 (HAdV5-GFP): 0.88 ± 0.4 µM
- CC50 (A549 cells): 13.3 ± 6.9 µM

Compound: COc1ccc(Cl)cc1C(=O)Nc1ccc(NC2CCCC2)cc1Cl [Compound 138, 5-Chloro-N-(2-chloro-4-(cyclopentylamino)phenyl)-2-methoxybenzamide]
- inhibition at 10 µM (HAdV5-GFP): 78.9%

Compound: O=C(NCc1cccc(Cl)c1)c1cc(Cl)ccc1O [Compound 39, 5-Chloro-N-(3-chlorobenzyl)-2-hydroxybenzamide]
- inhibition at 10 µM (HAdV5-GFP): 72 ± 1.5%

Compound: COc1ccc([C@@H](C)NC(=O)c2cc(Cl)ccc2O)cc1 [Compound 50, (R)-5-Chloro-2-hydroxy-N-(1-(4-methoxyphenyl)ethyl)benzamide]
- inhibition at 10 µM (HAdV5-GFP): 33.5 ± 14.8%

Compound: CN1CCC(CNc2ccc(NC(=O)c3cc(Cl)ccc3O)c(Cl)c2)CC1 [Compound 128, 5-Chloro-N-(2-chloro-4-(((1-methylpiperidin-4-yl)methyl)amino)phenyl)-2-hydroxybenzamide]
- inhibition at 10 µM (HAdV5-GFP): 0%

Compound: O=C(NC1CCOCC1)c1cc(Cl)ccc1O [Compound 159, 5-Chloro-2-hydroxy-N-(tetrahydro-2H-pyran-4-yl)benzamide]
- inhibition at 10 µM (HAdV5-GFP): 0%

Compound: O=C(NCc1ccc(F)c(F)c1)c1cc(Cl)ccc1O [Compound 34, 5-Chloro-N-(3,4-difluorobenzyl)-2-hydroxybenzamide]
- inhibition at 10 µM (HAdV5-GFP): 37.2 ± 23.4%

Compound: CC(C)[C@H](NC(=O)c1cc(Cl)ccc1O)C(=O)Nc1ccc(C(F)(F)F)cc1Cl [Compound 66, (S)-5-Chloro-N-(1-((2-chloro-4-(trifluoromethyl)phenyl)amino)-3-methyl-1-oxobutan-2-yl)-2-hydroxybenzamide]
- inhibition at 10 µM (HAdV5-GFP): 24.8 ± 12.3%

Compound: O=C(NCc1ccc(F)cc1)c1cc(Cl)ccc1O [Compound 40, 5-Chloro-N-(4-fluorobenzyl)-2-hydroxybenzamide]
- inhibition at 10 µM (HAdV5-GFP): 72 ± 3%

Compound: O=C(NC1CCCCCC1)c1cc(Cl)ccc1O [Compound 158, 5-Chloro-N-cycloheptyl-2-hydroxybenzamide]
- EC50 (HAdV5-GFP): 4700 nM

Compound: O=C(c1cc(Cl)ccc1O)N1CCCCC1 [Compound 171]
- Plaque Assay (%) Inhibition (10 μM) (HAdV5-GFP; HAdV5-GFP, 10 μM, low MOI, 293β5 cell line): 0.00 ± 0.00%

Compound: CN(Cc1ccc(F)cc1)C(=O)c1cc(Cl)ccc1O [Compound 41, 5-Chloro-N-(4-fluorobenzyl)-2-hydroxy-N-methylbenzamide]
- inhibition at 10 µM (HAdV5-GFP): 0%

Compound: O=C(Nc1ccc([N+](=O)[O-])c(Cl)c1)c1cc(Cl)ccc1O [Compound 10, 5-Chloro-N-(3-chloro-4-nitrophenyl)-2-hydroxybenzamide]
- inhibition at 10 µM (HAdV5-GFP): 100%
- IC50 (HAdV5-GFP): 1 µM

Compound: CS(=O)(=O)Nc1ccc(Cl)cc1C(=O)N[C@@H](Cc1ccccc1)C(=O)Nc1ccc([N+](=O)[O-])cc1Cl [Compound 71, (S)-5-Chloro-N-(1-((2-chloro-4-nitrophenyl)amino)-1-oxo-3-phenylpropan-2-yl)-2-(methylsulfonamido)benzamide]
- inhibition at 10 µM (HAdV5-GFP): 88.9 ± 15.7%

Compound: CC(=O)N1CCN(C(=O)c2cc(Cl)ccc2O)CC1 [Compound 172, 1-(4-(5-Chloro-2-hydroxybenzoyl)piperazin-1-yl)ethanone]
- inhibition at 10 µM (HAdV5-GFP): 0%

Compound: CSCC[C@H](NC(=O)c1cc(Cl)ccc1O)C(=O)Nc1ccc([N+](=O)[O-])cc1Cl [Compound 63, (S)-5-Chloro-N-(1-((2-chloro-4-nitrophenyl)amino)-4-(methylthio)-1-oxobutan-2-yl)-2-hydroxybenzamide]
- inhibition at 10 µM (HAdV5-GFP): 34.8 ± 16.9%

Compound: O=C(Nc1ccc(NC2CCCC2)cc1Cl)c1cccc(Cl)c1 [Compound 137, 3-Chloro-N-(2-chloro-4-(cyclopentylamino)phenyl)benzamide]
- inhibition at 10 µM (HAdV5-GFP): 82.9%

Compound: O=C(Nc1ccc(NC2CCCC2)cc1Cl)c1ccccc1O [Compound 135, N-(2-Chloro-4-(cyclopentylamino)phenyl)-2-hydroxybenzamide]
- inhibition at 10 µM (HAdV5-GFP): 77.5%

Compound: CN1CCN(C(=O)c2cc(Cl)ccc2O)CC1 [Compound 173, (5-Chloro-2-hydroxyphenyl)(4-methylpiperazin-1-yl)methanone]
- inhibition at 10 µM (HAdV5-GFP): 0%

Compound: CN1CCN(CCNC(=O)c2cc(Cl)ccc2O)CC1 [Compound 167, 5-Chloro-2-hydroxy-N-(2-(4-methylpiperazin-1-yl)ethyl)benzamide]
- inhibition at 10 µM (HAdV5-GFP): 0%

Compound: O=C(NCc1ccc(F)cc1F)c1cc(Cl)ccc1O [Compound 33, 5-Chloro-N-(2,4-difluorobenzyl)-2-hydroxybenzamide]
- inhibition at 10 µM (HAdV5-GFP): 74.7 ± 6.9%

Compound: CC(=O)Nc1ccc(NC(=O)c2cc(Cl)ccc2O)c(Cl)c1 [Compound 77, N-(4-Acetylamino-2-chlorophenyl)-5-chloro-2-hydroxybenzamide]
- inhibition at 10 µM (HAdV5-GFP): 0%

Compound: O=C(Nc1ccc(NC2CCNCC2)cc1Cl)c1cc(Cl)ccc1O [Compound 125, 5-Chloro-N-(2-chloro-4-(piperidin-4-ylamino)phenyl)-2-hydroxybenzamide hydrochloride]
- inhibition at 10 µM (HAdV5-GFP): 39.7 ± 13.5%

Compound: O=C(NCC1CCOCC1)c1cc(Cl)ccc1O [Compound 163, 5-Chloro-2-hydroxy-N-((tetrahydro-2H-pyran-4-yl)methyl)benzamide]
- inhibition at 10 µM (HAdV5-GFP): 0%

Compound: O=C(Nc1ccc(NCCN2CCOCC2)cc1Cl)c1cc(Cl)ccc1O [Compound 129, 5-Chloro-N-(2-chloro-4-((2-morpholinoethyl)amino)phenyl)-2-hydroxybenzamide]
- inhibition at 10 µM (HAdV5-GFP): 1.4 ± 12.3%

Compound: C[C@H](NC(=O)c1cc(Cl)ccc1O)C1CCCCC1 [Compound 162, (S)-5-chloro-N-(1-cyclohexylethyl)-2-hydroxybenzamide]
- EC50 (HAdV5-GFP): 510 nM
- inhibition at 10 µM (HAdV5-GFP): 100%

Compound: O=C(NCCN1CCOCC1)c1cc(Cl)ccc1O [Compound 168, 5-Chloro-2-hydroxy-N-(2-morpholinoethyl)benzamide]
- EC50 (HAdV5-GFP): 3730 nM
- inhibition at 10 µM (HAdV5-GFP): 0%

Compound: Nc1ccc(NC(=O)c2cc(Cl)ccc2O)c(Cl)c1 [Compound 76, N-(4-Amino-2-chlorophenyl)-5-chloro-2-hydroxybenzamide]
- inhibition at 10 µM (HAdV5-GFP): 0%

Compound: NCCNc1ccc(NC(=O)c2cc(Cl)ccc2O)c(Cl)c1 [Compound 123, N-(4-((2-Aminoethyl)amino)-2-chlorophenyl)-5-chloro-2-hydroxybenzamide hydrochloride]
- inhibition at 10 µM (HAdV5-GFP): 19.4 ± 12.2%

Compound: CN1CCC(Oc2ccc(Cl)cc2C(=O)Nc2ccc(NC3CCCC3)cc2Cl)CC1 [Compound 139, 5-Chloro-N-(2-chloro-4-(cyclopentylamino)phenyl)-2-((1-methylpiperidin-4-yl)oxy)benzamide]
- inhibition at 10 µM (HAdV5-GFP): 0%

Compound: O=C(NCCC1CCCCC1)c1cc(Cl)ccc1O [Compound 165, 5-Chloro-N-(2-cyclohexylethyl)-2-hydroxybenzamide]
- EC50 (HAdV5-GFP): 1000 nM
- IC50 (HAdV5-GFP): 1 ± 0.1 µM

Compound: O=C(Cc1cc(Cl)ccc1O)Nc1ccc(NC2CCCC2)cc1Cl [Compound 146, 2-(5-Chloro-2-hydroxyphenyl)-N-(2-chloro-4-(cyclopentylamino)phenyl)acetamide]
- inhibition at 10 µM (HAdV5-GFP): 85.8 ± 5.8%

Compound: O=C(NCc1ccccc1)c1cc(Cl)ccc1O [Compound 45, N-Benzyl-5-chloro-2-hydroxybenzamide]
- inhibition at 10 µM (HAdV5-GFP): 12.7 ± 2.9%

Compound: CC(C)C[C@H](NC(=O)c1cc(Cl)ccc1O)C(=O)Nc1ccc([N+](=O)[O-])cc1Cl [Compound 61, (S)-5-Chloro-N-(1-((2-chloro-4-nitrophenyl)amino)-4-methyl-1-oxopentan-2-yl)-2-hydroxybenzamide]
- inhibition at 10 µM (HAdV5-GFP): 17.4 ± 12.3%
